Reference: US7399777B2, “Diarylcycloalkyl derivatives, processes for their preparation and their use as pharmceuticals” (Sanofi-Aventis Deutschland GmbH, priority 2001, dated 2008)
pEC50: −log10 of the molar value.

Molecular target: T1, human PPARα (Homo sapiens, UniProt Q07869)
T1 construct: expressed in transfected cells; host or cells: HEK cells (human embryo kidney), stably transfected with pcDNA3-GR-GAL4-humanPPARα and the luciferase reporter pdeltaMG4LZ
T1 sequence (Q07869 167-468): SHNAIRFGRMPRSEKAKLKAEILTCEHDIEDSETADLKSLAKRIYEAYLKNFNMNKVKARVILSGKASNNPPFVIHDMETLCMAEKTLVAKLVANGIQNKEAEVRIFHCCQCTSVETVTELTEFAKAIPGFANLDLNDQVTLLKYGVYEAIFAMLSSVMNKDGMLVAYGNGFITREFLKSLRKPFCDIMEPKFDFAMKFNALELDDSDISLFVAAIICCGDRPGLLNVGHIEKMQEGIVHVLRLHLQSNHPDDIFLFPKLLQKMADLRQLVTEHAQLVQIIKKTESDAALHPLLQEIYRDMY
Test: PPARα reporter cell line assay (stably transfected HEK cells, GR-GAL4-PPARα fusion protein, firefly luciferase reporter)
Assay type: cell-based
Details: agonist activity in HEK PPARα reporter cell line; 24 h incubation; luciferase luminescence
Description: To analyze the effectiveness of substances which bind to human PPARα, activating it in agonistic manner, a stable transfected HEK cell line (HEK=human embryo kidney) designated here as “PPARα reporter cell line” is used. It contains two genetic elements, a firefly luciferase reporter element and a PPARα fusion protein (GR-GAL4-PPARα) which controls the expression of the firefly luciferase reporter element in a PPARα ligand dependent way.
The PPARα reporter cell line was established in two steps: First, the firefly luciferase reporter element was constructed and stably transfected into HEK cells. Five DNA binding sites for the yeast transcription factor GAL4 (five repetitions of the sequence 5′-CGGAGTACTGTCCTCCGAG-3′) (SEQ ID NO:1) were cloned 5′ upstream of a 68 bp minimal RNA polymerase II promoter from the GR mouse mammary tumor virus long terminal repeat (accession # V01175) providing a CCAAT-box as well as a TATA-element. Cloning and sequencing was done as described by Sambrook J. et. al. (Molecular cloning, Cold Spring Harbor Laboratory Press, 1989). The complete Photinus pyralis luciferase gene (accession # M 15077) was cloned 3′ downstream of the GAL4 binding sites and the MMTV minimal promoter. The firefly luciferase reporter element consisting of 5 GAL4 binding sites, the MMTV minimal promoter and the full length luciferase gene was recloned into a plasmid backbone harboring a Zeozin resistence gene leading to plasmid “pdeltaMG4LZ”. This vector was transfected in HEK cells as described by Ausubel, F. M. et al. (Current protocols in molecular biology, Vol. 1-3, John Wiley & Sons, Inc., 1995). Stable clones have been selected using Zeozin as a selection agent (0.5 mg/ml).
In a second step, the PPARα fusion protein (GR-GAL4-PPARα) that controls expression of the firefly luciferase reporter element, was stably integrated in this cell background. For this purpose the cDNAs coding for the N-terminal 76 amino acids of the human glucocorticoid receptor (“GR”, accession # P04150) have been linked to amino acids 1-147 of the yeast GAL4-protein (accession # P04386) followed by the ligand binding domain of humanPPARα (amino acids S167-Y468, accession # S74349). The GR-GAL4-human PPARα construct was cloned into plasmid pcDNA3 (Invitrogen) were its expression is driven constitutively by the Cytomegalovirus promoter. The plasmid pcDNA3-GR-GAL4-humanPPARα was transfected in a stable HEK-cell clone that already contained the firefly luciferase reporter element described above. A double-transfected cell line containing both, the firefly luciferase reporter element as well as the GR-GAL4-humanPPARα fusion protein, has been selected on medium supplemented with Zeozin (0.5 mg/ml) and G418 (0.5 mg/ml).
The activity of PPARα agonists is determined in a three day test, described below:
The PPARα reporter cell line is cultivated up to 80% confluence in DMEM medium (# 41965-039, Life Technologies) with the following additives: 10% cs-FCS (fetal calf serum, #SH-30068.03, Hyclone), antibiotics (0.5 mg/ml of zeozin [#R250-01, Invitrogen], 0.5 mg/ml of G418 [#10131-019, Life Technologies], 1% penicillin streptomycin solution [#15140-031, Life Technologies]) and 2 mM of L-glutamine (#25030-032, Life Technologies). Cultivation is carried out in standard cell culture bottles (# 33111, Becton Dickinson) in a cell culture incubator at 37° C. and 5% CO2. The 80% confluent cells are washed once with 30 ml of PBS (#14190-094, Life Technologies), treated with 2 ml of trypsin solution (#25300-054, Life Technologies) at 37° C. for 2 min, taken up in 5 ml of the medium described above and counted in a cell counter. After dilution to 500,000 cells/ml, in each case 35,000 cells are sown into each well of a 96-well microtiter plate having a clear plastic bottom (#3610, Coming Costar). The plates are incubated in a cell incubator at 37° C. and 5% CO2 for 24 h.
The PPARα agonists to be tested are dissolved in DMSO at a concentration of 10 mM. […]

Row | Compound | pEC50
1 | Cc1cccc(CC[C@H]2CCC[C@H](OCc3coc(-c4ccc(F)cc4)n3)C2)c1C(=O)O (racemic) [XXIX, rac-trans-2-(2-{3-[2-(4-Fluorophenyl)oxazol-4-ylmethoxy]cyclohexyl}ethyl)-6-methylbenzoic acid] | 8.85
2 | Cc1cccc(CO[C@@H]2CCC[C@H](OCc3nc(-c4ccccc4)oc3C)C2)c1C(=O)O [Example LX, 2-Methyl-6-[1R,3S-3-(5-methyl-2-phenyloxazol-4-ylmethoxy)cyclohexyloxymethyl]benzoic acid] | 9.70
3 | Cc1cccc(CO[C@H]2CCC[C@@H](OCc3coc(-c4ccccc4)n3)C2)c1C(=O)O (single isomer, unassigned) [VI, cis-2-Methyl-6-[3-(2-phenyloxazol-4-ylmethoxy)cyclohexyloxymethyl]benzoic acid] | 9.74
4 | Cc1cccc(CO[C@@H]2CCC[C@H](OCc3nc(-c4ccc(C(C)C)cc4)oc3C)C2)c1C(=O)O [Example LXIX, 2-Methyl-6-[(1R,3S)-3-(5-methyl-2-(4-(2-propyl)-phenyl)-oxazol-4-ylmethoxy)-cyclohexyloxymethyl]-benzoic acid] | 9.96
5 | Cc1cccc(CO[C@@H]2CCC[C@H](OCc3coc(-c4ccc(F)cc4)n3)C2)c1C(=O)O (relative stereo) [Example II, (+)-cis-2-(3-(2-(4-Fluorophenyl)oxazol-4-ylmethoxy)cyclohexyloxymethyl)-6-methylbenzoic acid] | 9.52
6 | Cc1cccc(CO[C@@H]2CCC[C@H](OCc3nc(-c4cccc(F)c4)oc3C)C2)c1C(=O)O [XLVIII, 2-{1R,3S-3-[2-(3-Fluoro-phenyl)-5-methyl-oxazol-4-ylmethoxyl]-cyclohexyloxymethyl}-6-methylbenzoic acid] | 9.60
7 | Cc1cccc(COC[C@@H]2CCC[C@H](OCc3coc(-c4ccc(F)cc4)n3)C2)c1C(=O)O (racemic) [XXV, rac-cis-2-{3-[2-(4-Fluorophenyl)oxazol-4-ylmethoxy]cyclohexylmethoxymethyl}-6-methylbenzoic acid] | 8.89
8 | Cc1cccc(CO[C@H]2CCC[C@@H](OCc3nc(-c4ccc(F)cc4)oc3C)C2)c1C(=O)O (stereo in doubt) [Example X, cis-2-{3-[2-(4-Fluorophenyl)-5-methyloxazol-4-ylmethoxy]cyclohexyloxymethyl}-6-methylbenzoic acid] | 9.30
9 | Cc1ccc(-c2nc(CO[C@H]3CCC[C@@H](OCc4cccc(C)c4C(=O)O)C3)co2)cc1 (stereo in doubt) [VIII, cis-2-Methyl-6-[3-(2-p-tolyloxazol-4-ylmethoxy)cyclohexyloxymethyl]benzoic acid] | 10.40
10 | COc1ccc(-c2nc(CO[C@@H]3CCC[C@H](OCc4cccc(C)c4C(=O)O)C3)c(C)o2)cc1 [LXV, 2-{1S,3R-3-[2-(4-Methoxyphenyl)-5-methyloxazol-4-ylmethoxy]cyclohexyloxymethyl}-6-methylbenzoic acid] | 8.96
11 | Cc1ccc(-c2nc(CO[C@@H]3CCC[C@H](OCc4cccc(C)c4C(=O)O)C3)c(C)o2)cc1 [LXIII, 2-Methyl-6-[1S,3R-3-(5-methyl-2-p-tolyloxazol-4-ylmethoxy)cyclohexyloxymethyl]benzoic acid] | 9.25
